Measurements taken from patent US9670199B2, “Ergoline derivatives as dopamine receptor modulators” (REGENTS OF THE UNIVERSITY OF MINNESOTA, priority 2012, dated 2017).

Legend:
[1] = target: T1, 5-HT2B receptor (Homo sapiens, UniProt P41595); experiment: 5-HT2B functional assay (agonism), HTRF quantitation of IP1 accumulation; assay type: cell-based; conditions: for 5-HT2B agonism (type of agonist): result in words
Source text: (§1) The biological activity of representative compounds of the invention can be determined using a number of assays that are known.

[2] = system: male rats; experiment: Effects on sexual function in rats; assay type: in vivo, rat; conditions: gavage
Source text: Effects of Cabergoline on Sexual Function in Rats. […] This can be tested by seeing whether it can potentiate the induction of a conditioned partner preference. For example, a study could be performed where rats take the drug immediately before their first sexual experience with an almond scented female and 4 days later the cabergoline rats are put in an open field with two females, one scented and the other unscented. Males given their first, e.g., 10, copulatory experiences with scented females would show a significant conditioned ejaculatory preference to ejaculate preferentially with the scented female. […] Cabergoline could also be similarly tested on males that have had their ejaculations reduced to near zero by chronic administration of the SSRI fluoxetine. SSRIs are known to induce anorgasmia, and currently there is no treatment for this side effect.

[3] = target: T1, 5-HT2B receptor; experiment: 5-HT2B functional assay, antagonism against serotonin; assay type: cell-based; conditions: result in words
Protocol: (§2) The biological activity of representative compounds of the invention can be determined using a number of assays that are known. For example, 5-HT2B functional assays were performed following the procedure reported by Porter, R. H. P., et al., Br. J. Pharmacol. 1999, 128, 13-20. 5-HT2B binding assays were performed following the procedure reported by Choi, D.-S., et al., FEBS Lett. 1994, 352, 393-399, using an agonist radioligand. D2 and D4 functional assays were performed following the method reported by Jensen, N. H., et al., Neuropsychopharmacology 2007, 33, 2303-2312.

[4] = target: D2 receptor (Homo sapiens, UniProt P14416); experiment: D2 functional assay; assay type: cell-based
Protocol: as §2

[5] = target: T2, D4 receptor (Homo sapiens, UniProt P21917); experiment: D4 functional assay; assay type: cell-based; conditions: result in words
T2 sequence (P21917 1-419): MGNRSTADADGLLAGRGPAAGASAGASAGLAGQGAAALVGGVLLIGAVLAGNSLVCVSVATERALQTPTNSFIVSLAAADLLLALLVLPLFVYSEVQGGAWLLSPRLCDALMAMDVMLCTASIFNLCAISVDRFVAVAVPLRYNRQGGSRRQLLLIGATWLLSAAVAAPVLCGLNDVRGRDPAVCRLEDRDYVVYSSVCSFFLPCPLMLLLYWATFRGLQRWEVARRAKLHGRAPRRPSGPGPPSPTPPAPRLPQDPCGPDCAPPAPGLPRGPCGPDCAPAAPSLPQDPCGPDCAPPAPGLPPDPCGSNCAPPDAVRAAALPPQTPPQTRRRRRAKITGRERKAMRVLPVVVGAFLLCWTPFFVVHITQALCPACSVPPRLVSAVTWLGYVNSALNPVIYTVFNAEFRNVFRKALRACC
Protocol: as §2

[6] = target: T1, 5-HT2B receptor; experiment: 5-HT2B competitive binding assay against 125I-radiolabeled 2,5-dimethoxy-4-iodoamphetamine (agonist radioligand); conditions: result in words
Source text: as §1

Chain of D2 receptor (P14416 whole entry): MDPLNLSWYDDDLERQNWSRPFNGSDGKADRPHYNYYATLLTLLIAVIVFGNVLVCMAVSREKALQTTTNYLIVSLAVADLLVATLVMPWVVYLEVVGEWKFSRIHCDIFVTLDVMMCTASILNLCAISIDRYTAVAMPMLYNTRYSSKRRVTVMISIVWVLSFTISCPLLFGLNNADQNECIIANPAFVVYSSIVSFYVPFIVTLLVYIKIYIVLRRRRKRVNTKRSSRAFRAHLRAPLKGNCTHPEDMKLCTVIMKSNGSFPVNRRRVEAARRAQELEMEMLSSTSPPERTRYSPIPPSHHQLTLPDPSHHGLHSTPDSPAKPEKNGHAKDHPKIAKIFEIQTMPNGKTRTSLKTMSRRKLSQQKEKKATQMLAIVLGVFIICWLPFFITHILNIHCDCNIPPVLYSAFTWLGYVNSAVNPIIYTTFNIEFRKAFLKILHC
T1 sequence (P41595 whole entry): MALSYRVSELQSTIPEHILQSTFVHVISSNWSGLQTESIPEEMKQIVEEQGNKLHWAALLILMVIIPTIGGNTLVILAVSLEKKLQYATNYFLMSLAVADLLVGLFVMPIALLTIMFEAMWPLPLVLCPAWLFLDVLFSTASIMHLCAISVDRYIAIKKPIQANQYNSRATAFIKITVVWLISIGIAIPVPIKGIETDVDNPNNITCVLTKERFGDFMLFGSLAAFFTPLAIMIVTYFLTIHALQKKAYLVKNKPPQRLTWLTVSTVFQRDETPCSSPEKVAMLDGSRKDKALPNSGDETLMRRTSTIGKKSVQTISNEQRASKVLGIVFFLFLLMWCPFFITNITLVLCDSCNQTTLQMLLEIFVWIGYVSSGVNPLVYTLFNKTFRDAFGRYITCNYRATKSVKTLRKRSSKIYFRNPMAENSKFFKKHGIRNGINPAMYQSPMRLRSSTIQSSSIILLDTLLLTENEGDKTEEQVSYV

C=CCN1C[C@H](C(=O)N(CCCN(C)C)C(=O)NCC)C[C@@H]2c3cccc4[nH]cc(c34)C[C@H]21 [cabergoline]
5-HT2B agonism (type of agonist) [1]: full agonists | anticipatory level changes prior to copulation (anticipatory desire) [2]: increased | ejaculation latencies vs controls [2]: shorter ejaculation latencies | intromissions before ejaculation vs controls [2]: more intromissions | number of ejaculations vs controls [2]: significantly more times

CN(C)CCCNC(=O)[C@@H]1C[C@@H]2c3cccc4c3c(cn4C)C[C@H]2N(C)C1 [Compound 14, (5R,8R,10R)-1,6-Dimethyl-N-[3-(dimethylamino)propyl]ergoline-8-carboxamide]
Emax ([1]; read-out: 5-HT2B Emax): < 12% | 5-HT2B agonism (type of agonist) [1]: minimal to no agonism | 5-HT2B antagonism against serotonin [3]: potent antagonists

COC(OC)[C@@H]1C[C@@H]2c3cccc4c3c(cn4C)C[C@H]2N(C)C1 [Compound 15]
5-HT2B agonism (type of agonist) [1]: no agonism | 5-HT2B antagonism against serotonin [3]: potent antagonists

CCNC(=O)N(CCCN(C)C)C(=O)[C@@H]1C[C@@H]2c3cccc4c3c(cn4C)C[C@H]2N(C)C1 [Compound 9, 1,6-Dimethylcabergoline]
5-HT2B agonism (type of agonist) [1]: no agonism | 5-HT2B antagonism against serotonin [3]: potent antagonists | EC50 [4]: 1.4 nM | Emax [4]: 50% | D2 agonism (type of agonist) ([4]; result in words): potent but partial D2 agonist | D4 agonism (type of agonist) [5]: full D4 agonist

C=CCN1C[C@H](C(=O)N(CCCN2CCOCC2)C(=O)NCC)C[C@@H]2c3cccc4[nH]cc(c34)C[C@H]21 [Compound 1, (5R,8R,10R)-6-Allyl-N-[3-(morpholino)propyl]-N-[(ethylamino)carbonyl]-ergoline-8-carboxamide]
activity/potency at 5-HT2B receptor in radioactive binding assay, compared with cabergoline [6]: not significantly less active | 5-HT2B agonism (type of agonist) [1]: full agonists
